What is called EC50 is the concentration giving half of the maximal effect. The low end stands for greater potency, the high end for weaker potency. Broadly, the IC50 is the concentration that gives 50% inhibition.

The test system of one test is HCV1b replicon. Description: HCV replicon assay (Huh-7 cell line with HCV1b replicon containing luciferase reporter) and EC50 determination. Format: cell-based. The conditions noted are these: Hepatitis C virus; Table 1; Huh-7 HCV1b replicon luciferase reporter, 72 hr, triplicate. The method, then: Example 213—HCV Replicon Assay and EC50 Determination
The antiviral activity of compounds against hepatitis C virus was determined by a hepatitis C virus replicon reporter cell line developed by Bartenschlager (Lohmann et al., Science 1999, 285:110-113; Bartenschlager et al., Antiviral Res 2003, 60:91-102). This cell-based assay utilized a liver cell carcinoma (Huh-7) cell line stably transformed with an HCV1b replicon containing a luciferase reporter gene. Varied concentrations of compounds were added to the reporter cell line, and further incubated at 37° C. for 72 hr in DMEM supplemented with 10% FCS. The inhibitory effects of experimental compounds or the reference compound, interferon alpha (INFα), on HCV replication were measured by luciferase activity using the Britelite™ plus luminescence reporter gene kit (Perkin Elmer, Shelton, Conn.). The Britelite plus reagent was added to the 96-well plates containing the HCV reporter cells, and luminescence was measured within 15 min using a Wallac 1450 Microbeta® Trilux liquid scintillation counter. EC50 values were calculated using GraFit 6 and GraphPad Prism 5 from triplicate HCV replicon assays.
With `Cc1cc(-c2cc(C3=C(C4CCC(C)CC4)CCN(C)C3)c(C(=O)O)s2)ccc1NC(=O)c1cscn1` (centres unmarked) [Example 196, 3-(1-methyl-4-(4-methylcyclohexyl)-1,2,5,6-tetrahydropyridin-3-yl)-5-(3-methyl-4-(thiazole-4-carboxamido)phenyl)thiophene-2-carboxylic acid], the EC50 was less than 3 µM.

`Cc1cc(-c2cc(C3=C(C4CCC(C)CC4)CCN(CCO)C3)c(C(=O)O)s2)ccc1NC(=O)c1cscn1` (centres unmarked) [Example 197, 3-(1-(2-hydroxyethyl)-4-(4-methylcyclohexyl)-1,2,5,6-tetrahydropyridin-3-yl)-5-(3-methyl-4-(thiazole-4-carboxamido)phenyl)thiophene-2-carboxylic acid] gave a concentration giving a half-maximal response (EC50) of less than 3 µM.

Consider `CN1CCC(C2CCC(F)(F)CC2)=C(c2cc(-c3ccc(NC(=O)c4cscn4)cc3)sc2C(=O)O)C1` [Example 200, 3-(4-(4,4-difluorocyclohexyl)-1-methyl-1,2,5,6-tetrahydropyridin-3-yl)-5-(4-(thiazole-4-carboxamido)phenyl)thiophene-2-carboxylic acid], for which the EC50 was in the range of 3 to 10 µM.

As for `CN1CCC(c2cc(-c3ccc(NC(=O)c4cscn4)cc3)sc2C(=O)O)=C(c2ccc(Cl)cc2Cl)C1` [Example 201, 3-(5-(2,4-dichlorophenyl)-1-methyl-1,2,3,6-tetrahydropyridin-4-yl)-5-(4-(thiazole-4-carboxamido)phenyl)thiophene-2-carboxylic acid], the half-maximal effective concentration (EC50) is less than 3 µM.

Take `Cc1ccc(C2=C(c3cc(-c4ccc(NC(=O)c5cscn5)cc4)sc3C(=O)O)CCN(C)C2)cc1` [Example 202, 3-(1-methyl-5-(p-tolyl)-1,2,3,6-tetrahydropyridin-4-yl)-5-(4-(thiazole-4-carboxamido)phenyl)thiophene-2-carboxylic acid]: the EC50 is less than 3 µM.

The compound `CC1CCC(C2=C(c3cc(-c4ccc(NC(=O)c5cscn5)nc4)sc3C(=O)O)CCN(C)C2)CC1` (centres unmarked) [Example 204, 3-(1-methyl-5-(4-methylcyclohexyl)-1,2,3,6-tetrahydropyridin-4-yl)-5-(6-(thiazole-4-carboxamido)pyridin-3-yl)thiophene-2-carboxylic acid] registered an EC50 of less than 3 µM.

Staying with this test, now noted: Hepatitis C virus; Table 2; Huh-7 HCV1b replicon luciferase reporter, 72 hr, triplicate.
As for `CC1CCC(C2=C(c3cc(-c4ccc(NC(=O)c5cscn5)cc4)sc3C(=O)O)CN(CC(O)CO)CC2)CC1` (centres unmarked) [Example 190, 3-(1-(2,3-dihydroxypropyl)-4-(4-methylcyclohexyl)-1,2,5,6-tetrahydropyridin-3-yl)-5-(4-(thiazole-4-carboxamido)phenyl)thiophene-2-carboxylic acid], the EC50 was less than 3 µM.

Compound `CN1CCC(c2cc(-c3ccc(NC(=O)c4cscn4)cc3)sc2C(=O)O)=C(C2CCCCC2)C1` [Example 205, 3-(5-Cyclohexyl-1-methyl-1,2,3,6-tetrahydro-pyridin-4-yl)-5-{4-[(thiazole-4-carbonyl)-amino]-phenyl}-thiophene-2-carboxylic acid] displayed an EC50 of less than 3 µM.

In another test the target is T1, HCV1b NS5B polymerase delta 21 (Hepatitis C virus genotype 1b, UniProt P26663).
T1 construct: purified HCV1b NS5B polymerase delta 21
T1 sequence (P26663 2420-2989): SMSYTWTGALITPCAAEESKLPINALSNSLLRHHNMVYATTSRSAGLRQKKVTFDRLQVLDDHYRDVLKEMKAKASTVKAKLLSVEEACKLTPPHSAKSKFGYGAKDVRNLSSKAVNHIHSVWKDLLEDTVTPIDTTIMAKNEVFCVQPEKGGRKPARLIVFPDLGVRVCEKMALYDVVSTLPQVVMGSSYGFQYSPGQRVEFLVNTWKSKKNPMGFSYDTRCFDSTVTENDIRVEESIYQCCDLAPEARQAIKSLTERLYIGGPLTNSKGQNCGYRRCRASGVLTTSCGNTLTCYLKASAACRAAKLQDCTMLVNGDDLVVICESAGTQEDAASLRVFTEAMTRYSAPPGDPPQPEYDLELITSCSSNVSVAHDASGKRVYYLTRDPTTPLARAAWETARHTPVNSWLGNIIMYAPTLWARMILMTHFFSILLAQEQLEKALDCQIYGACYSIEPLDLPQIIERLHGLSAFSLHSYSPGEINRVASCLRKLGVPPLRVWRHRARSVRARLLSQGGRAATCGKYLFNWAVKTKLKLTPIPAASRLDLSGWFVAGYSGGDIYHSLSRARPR
Description: RNA-dependent RNA HCV NS5B (polymerase) assay and IC50 determination. The test is classed as biochemical.
Settings: not given
The protocol:
Example 212—RNA-Dependent RNA HCV NS5B (Polymerase) Assay and IC50 Determination
In vitro RNA-dependent RNA polymerase activity was determined in a reaction mixture (50 μL) containing 50 mM Tris-HCl, pH 7.5, 5 mM MgCl2, 1 mM dithiothreitol, 0.5% Triton® X-100, 10 μM of UTP, 0.1-0.5 μCi of α-^32P UTP (Perkin Elmer Life Sciences), 1 μg of polyA:U16 (Midland Oligo), and 0.6 μg of purified HCV1b NS5B polymerase delta 21. Different concentrations of compounds were added to the reaction mixtures. The reaction was carried out at RT (23° C.) for 60 min and then stopped by the addition of 100 μL of 50 mM EDTA. The reaction mixtures were filtered through either a DE81 membrane or a positively charged nylon membrane, and the membranes were then extensively washed with 30 mM sodium citrate, pH 7.0 and 300 mM NaCl. The radiolabeled RNA products were quantitated using a Storm™ PhosphorImager™ (GE life Sciences). IC50 values were calculated using GraFit 6 and GraphPad Prism 5 from triplicate assays.
Turning to `COc1cc(-c2cc(C3=C(C4CCC(C)CC4)CN(C)CC3)c(C(=O)O)s2)ccc1NC(=O)c1cscn1` (centres unmarked) [Example 179, 5-(3-methoxy-4-(thiazole-4-carboxamido)phenyl)-3-(1-methyl-5-(4-methylcyclohexyl)-1,2,3,6-tetrahydropyridin-4-yl)thiophene-2-carboxylic acid], the IC50 was less than 3 µM.

The compound `CCc1cc(-c2cc(C3=C(C4CCC(C)CC4)CN(C)CC3)c(C(=O)O)s2)ccc1NC(=O)c1cscn1` (centres unmarked) [Example 181, 5-(3-ethyl-4-(thiazole-4-carboxamido)phenyl)-3-(1-methyl-5-(4-methylcyclohexyl)-1,2,3,6-tetrahydropyridin-4-yl)thiophene-2-carboxylic acid] displayed a half-maximal inhibitory concentration (IC50) of less than 3 µM.

In turn, `CC1CCC(C2=C(c3cc(-c4ccc(NC(=O)c5cscn5)c(Cl)c4)sc3C(=O)O)CCN(C)C2)CC1` (centres unmarked) [Example 182, 5-(3-chloro-4-(thiazole-4-carboxamido)phenyl)-3-(1-methyl-5-(4-methylcyclohexyl)-1,2,3,6-tetrahydropyridin-4-yl)thiophene-2-carboxylic acid] returned an IC50 of less than 3 µM.

Regarding `COc1ccn2nc(-c3ccc(-c4cc(C5=C(C6CCC(C)CC6)CN(C)CC5)c(C(=O)O)s4)cc3)cc2n1` (centres unmarked) [Example 184, 5-(4-(5-methoxypyrazolo[1,5-a]pyrimidin-2-yl)phenyl)-3-(1-methyl-5-(4-methylcyclohexyl)-1,2,3,6-tetrahydropyridin-4-yl)thiophene-2-carboxylic acid], the IC50 was less than 3 µM.

The compound `CC1CCC(C2=C(c3cc(-c4ccc(NC(=O)c5cscn5)cc4)sc3C(=O)O)CCN(Cc3cnn(C)c3)C2)CC1` (centres unmarked) [Example 186, 3-(1-((1-methyl-1H-pyrazol-4-yl)methyl)-5-(4-methylcyclohexyl)-1,2,3,6-tetrahydropyridin-4-yl)-5-(4-(thiazole-4-carboxamido)phenyl)thiophene-2-carboxylic acid] gave an IC50 of less than 3 µM.

Regarding `Cc1cc(-c2cc(C3=C(C4CCC(C)CC4)CN(C)CC3)c(C(=O)O)s2)ccc1-c1cc2ncccn2n1` (centres unmarked) [Example 187, 5-(3-methyl-4-(pyrazolo[1,5-a]pyrimidin-2-yl)phenyl)-3-(1-methyl-5-(4-methylcyclohexyl)-1,2,3,6-tetrahydropyridin-4-yl)thiophene-2-carboxylic acid], the IC50 is less than 3 µM.

For `CC1CCC(C2=C(c3cc(-c4ccc(NC(=O)c5cscn5)cc4)sc3C(=O)O)CN(CC3COC(C)(C)O3)CC2)CC1` (centres unmarked) [Example 189, 3-(1-((2,2-dimethyl-1,3-dioxolan-4-yl)methyl)-4-(4-methylcyclohexyl)-1,2,5,6-tetrahydropyridin-3-yl)-5-(4-(thiazole-4-carboxamido)phenyl)thiophene-2-carboxylic acid], the IC50 was less than 3 µM.

`CC1CCC(C2=C(c3cc(-c4ccc(NC(=O)c5cscn5)cc4)sc3C(=O)O)CN(CC(O)CO)CC2)CC1` (centres unmarked) [Example 190, 3-(1-(2,3-dihydroxypropyl)-4-(4-methylcyclohexyl)-1,2,5,6-tetrahydropyridin-3-yl)-5-(4-(thiazole-4-carboxamido)phenyl)thiophene-2-carboxylic acid] yielded an IC50 of less than 3 µM.

In the case of `CC1CCC(C2=C(c3cc(-c4ccc(NC(=O)c5cscn5)c(F)c4)sc3C(=O)O)CN(C)CC2)CC1` (centres unmarked) [Example 198], the half-maximal inhibitory concentration (IC50) is less than 3 µM.

`Cc1cc(-c2cc(C3=C(C4CCC(C)CC4)CCN(Cc4cnn(C)c4)C3)c(C(=O)O)s2)ccc1NC(=O)c1cscn1` (centres unmarked) [Example 199, 3-(1-((1-methyl-1H-pyrazol-4-yl)methyl)-4-(4-methylcyclohexyl)-1,2,5,6-tetrahydropyridin-3-yl)-5-(3-methyl-4-(thiazole-4-carboxamido)phenyl)thiophene-2-carboxylic acid] gave an IC50 of less than 3 µM.

`CN1CCC(C2CCC(F)(F)CC2)=C(c2cc(-c3ccc(NC(=O)c4cscn4)cc3)sc2C(=O)O)C1` [Example 200, 3-(4-(4,4-difluorocyclohexyl)-1-methyl-1,2,5,6-tetrahydropyridin-3-yl)-5-(4-(thiazole-4-carboxamido)phenyl)thiophene-2-carboxylic acid] displayed an IC50 of less than 3 µM.

Consider `CC1CCC(C2=C(c3cc(-c4ccc(N)nc4)sc3C(=O)O)CCN(C)C2)CC1` (centres unmarked) [Example 203, 5-(6-aminopyridin-3-yl)-3-(1-methyl-5-(4-methylcyclohexyl)-1,2,3,6-tetrahydropyridin-4-yl)thiophene-2-carboxylic acid], for which the concentration for half-maximal inhibition (IC50) is less than 3 µM.

`CN1CCC(c2cc(-c3ccccc3)sc2C(=O)O)=C(C2CCCCCC2)C1` [Example 206, 3-(5-Cycloheptyl-1-methyl-1,2,3,6-tetrahydro-pyridin-4-yl)-5-phenyl-thiophene-2-carboxylic acid]: the concentration for half-maximal inhibition (IC50) was less than 3 µM.

`CN1CCC(c2cc(-c3ccccc3)sc2C(=O)O)=C(C2CCCC2)C1` [Example 207, 3-(5-Cyclopentyl-1-methyl-1,2,3,6-tetrahydro-pyridin-4-yl)-5-phenyl-thiophene-2-carboxylic acid] returned a concentration for half-maximal inhibition (IC50) of 3 to 10 µM.

The compound `CN1CCC(c2cc(-c3ccccc3)sc2C(=O)O)=C(c2ccc(Cl)cc2)C1` [Example 208, 3-[5-(4-Chloro-phenyl)-1-methyl-1,2,3,6-tetrahydro-pyridin-4-yl]-5-phenyl-thiophene-2-carboxylic acid] yielded a 50% inhibitory concentration (IC50) greater than 10 µM.

In the case of `CCCCCC1=C(c2cc(-c3ccccc3)sc2C(=O)O)CCN(C)C1` [Example 209, 3-(1-Methyl-5-pentyl-1,2,3,6-tetrahydro-pyridin-4-yl)-5-phenyl-thiophene-2-carboxylic acid], the IC50 fell in the range of 3 to 10 µM.

The compound `CN1CCC(C2CCCCC2)=C(c2cc(-c3ccc(NC(=O)c4cscn4)cc3)sc2C(=O)O)C1` [Example 210, 3-(4-Cyclohexyl-1-methyl-1,2,5,6-tetrahydro-pyridin-3-yl)-5-{4-[(thiazole-4-carbonyl)-amino]-phenyl}-thiophene-2-carboxylic acid] returned an IC50 of less than 3 µM.

Compound `CN1CCC(c2cc(C#CC(C)(C)C)sc2C(=O)O)=C(C2CCCCC2)C1` [Example 211, 3-(5-Cyclohexyl-1-methyl-1,2,3,6-tetrahydro-pyridin-4-yl)-5-(3,3-dimethyl-but-1-ynyl)-thiophene-2-carboxylic acid] showed a 50% inhibitory concentration (IC50) of less than 3 µM.

These data come from patent US10426762B2, “Inhibitors of hepatitis C virus polymerase” (COCRYSTAL DISCOVERY, INC., priority 2012, dated 2019).
